Measurements published in US20100173930A1, “Certain Chemical Entities, Compositions and Methods” (priority 2006, published 2010).

Test system: SKM MYOFIBRIL
Assay: SKM myofibril AC1.4 (ATPase, PK/LDH coupled enzyme system); also: unit not given here
Format: biochemical
Details: screen at pCa=6.5

Row | Compound | SKM MYOFIBRIL AC1.4 (median)
1 | Cc1ccc2nc(-c3ccc(O)cc3)c(NC3CCCC3)n2c1 [4-[3-(cyclopentylamino)-6-methyl-4-hydroimidazo[1,2-a]pyridin-2-yl]phenol] | 13.5754
2 | Oc1ccc(-c2nc3ccccn3c2NC2CCCCC2)cc1 [4-[3-(cyclohexylamino)-4-hydroimidazo[1,2-a]pyridin-2-yl]phenol] | 8.513
3 | C[C@H](Nc1c(-c2ccc(O)cc2)nc2ccccn12)c1ccccc1 [4-{3-[((1S)-1-phenylethyl)amino]-4-hydroimidazo[1,2-a]pyridin-2-yl}phenol] | 23.0212
4 | CNC(=O)c1ccc2nc(-c3ccccc3O)c(NCc3ccc(F)cc3)n2c1 [(3-{[(4-fluorophenyl)methyl]amino}-2-(2-hydroxyphenyl)(4-hydroimidazo[1,2-a]pyridin-6-yl))-N-methylcarboxamide] | 1.8401
5 | COCCNC(=O)c1ccc2nc(-c3ccccc3O)c(NCc3cccc(Cl)c3)n2c1 [(3-{[(3-chlorophenyl)methyl]amino}-2-(2-hydroxyphenyl)(4-hydroimidazo[1,2-a]pyridin-6-yl))-N-(2-methoxyethyl)carboxamide] | 2.0573
6 | Cc1ccn2c(NCc3ccccc3F)c(-c3ccccc3O)nc2c1 [2-(3-{[(2-fluorophenyl)methyl]amino}-7-methyl-4-hydroimidazo[1,2-a]pyridin-2-yl)phenol] | 1.0036
7 | Oc1ccc(-c2nc3ccc(-c4ccccc4)cn3c2NCc2ccc(F)cc2)cc1 [4-(3-{[(4-fluorophenyl)methyl]amino}-6-phenyl-4-hydroimidazo[1,2-a]pyridin-2-yl)phenol] | 15.7257
8 | CC(C)(O)c1ccc2nc(-c3ccccc3O)c(NCc3cccc(Cl)c3)n2c1 [2-(3-{[(3-chlorophenyl)methyl]amino}-6-(1-hydroxy-isopropyl)-4-hydroimidazo[1,2-a]pyridin-2-yl)phenol] | 2.0993
9 | CCc1ccn2c(NCc3cccc(Cl)c3)c(-c3ccccc3O)nc2c1 [2-(3-{[(3-chlorophenyl)methyl]amino}-7-ethyl-4-hydroimidazo[1,2-a]pyridin-2-yl)phenol] | 0.9168
10 | COc1ccc(-c2nc3ccccn3c2NC2CCCCC2)cc1 [cyclohexyl[2-(4-methoxyphenyl)(4-hydroimidazo[1,2-a]pyridin-3-yl)]amine] | 16.6703
11 | Oc1ccccc1-c1nc2cccc(Br)n2c1NCc1cccc(Cl)c1 [2-(5-bromo-3-{[(3-chlorophenyl)methyl]amino}-4-hydroimidazo[1,2-a]pyridin-2-yl)phenol] | 12.5914
12 | Cc1ccc2nc(-c3ccccc3O)c(NCc3cccc(Cl)c3)n2n1 [2-(3-{[(3-chlorophenyl)methyl]amino}-6-methyl-4-hydroimidazo[1,2-e]pyridazin-2-yl)phenol] | 3.5753
13 | Oc1ccc(-c2nc3ccccn3c2NCc2ccccc2Cl)cc1 [4-(3-{[(2-chlorophenyl)methyl]amino}-4-hydroimidazo[1,2-a]pyridin-2-yl)phenol] | 17.7003
14 | CN(C)C(=O)c1ccc2nc(-c3ccccc3O)c(NCc3cccc(Cl)c3)n2c1 [(3-{[(3-chlorophenyl)methyl]amino}-2-(2-hydroxyphenyl)(4-hydroimidazo[1,2-a]pyridin-6-yl))-N,N-dimethylcarboxamide] | 16.9244
15 | Cc1ccc2nc(-c3ccccc3O)c(NCc3cccc(Cl)c3)n2c1 [2-(3-{[(3-chlorophenyl)methyl]amino}-6-methyl-4-hydroimidazo[1,2-a]pyridin-2-yl)phenol] | 1.1197
16 | Fc1cccc(-c2nc3ccccn3c2NCc2cccc(Cl)c2)c1 [[(3-chlorophenyl)methyl][2-(3-fluorophenyl)(4-hydroimidazo[1,2-a]pyridin-3-yl)]amine] | 43.8606
17 | Oc1ccc(-c2nc3ccc(Cl)cn3c2NCc2ccc(F)cc2)cc1 [4-(6-chloro-3-{[(4-fluorophenyl)methyl]amino}-4-hydroimidazo[1,2-a]pyridin-2-yl)phenol] | 14.9602
18 | Oc1ccccc1-c1nc2cnccn2c1NCc1cccs1 [2-{3-[(2-thienylmethyl)amino]-4-hydroimidazo[1,2-a]pyrazin-2-yl}phenol] | 10.6577
19 | N#Cc1ccn2c(NC3CCCC3)c(-c3ccc(O)cc3)nc2c1 [3-(cyclopentylamino)-2-(4-hydroxyphenyl)-4-hydroimidazo[1,2-a]pyridine-7-carbonitrile] | 17.9621
20 | CC(CO)c1ccn2c(NCc3cccc(Cl)c3)c(-c3ccccc3O)nc2c1 (stereo not drawn) [2-(3-{[(3-chlorophenyl)methyl]amino}-7-(1-hydroxy-isopropyl)-4-hydroimidazo[1,2-a]pyridin-2-yl)phenol] | 1.2697
21 | Cc1ccc(-c2nc3ccccn3c2NCc2cccc(Cl)c2)cc1 [[(3-chlorophenyl)methyl][2-(4-methylphenyl)(4-hydroimidazo[1,2-a]pyridin-3-yl)]amine] | 17.6147

Row | Compound | SKM MYOFIBRIL AC1.4 (median)
22 | CNC(=O)c1ccc2nc(-c3ccccc3O)c(NCc3cccc(Cl)c3)n2c1 [(3-{[(3-chlorophenyl)methyl]amino}-2-(2-hydroxyphenyl)(4-hydroimidazo[1,2-a]pyridin-6-yl))-N-methylcarboxamide] | 1.2348
23 | O=C(O)c1ccc2nc(-c3ccccc3O)c(NCc3cccc(Cl)c3)n2c1 [3-{[(3-chlorophenyl)methyl]amino}-2-(2-hydroxyphenyl)-4-hydroimidazo[1,2-a]pyridine-6-carboxylic acid] | 15.043
24 | Oc1ccccc1-c1nc2ccccn2c1NCc1ccc(F)cc1 [2-(3-{[(4-fluorophenyl)methyl]amino}-4-hydroimidazo[1,2-a]pyridin-2-yl)phenol] | 3.2661
25 | O=C(NCCO)c1ccc2nc(-c3ccccc3O)c(NCc3cccc(Cl)c3)n2c1 [(3-{[(3-chlorophenyl)methyl]amino}-2-(2-hydroxyphenyl)(4-hydroimidazo[1,2-a]pyridin-6-yl))-N-(2-hydroxyethyl)carboxamide] | 1.3334
26 | C[C@H](Nc1c(-c2ccc(O)cc2)nc2ccccn12)C(C)(C)C [4-{3-[((1S)-1,2,2-trimethylpropyl)amino]-4-hydroimidazo[1,2-a]pyridin-2-yl}phenol] | 11.8489
27 | Cc1ccn2c(NCc3ccccc3Cl)c(-c3ccccc3O)nc2c1 [2-(3-{[(2-chlorophenyl)methyl]amino}-7-methyl-4-hydroimidazo[1,2-a]pyridin-2-yl)phenol] | 1.165
28 | Oc1ccccc1-c1nc2ccccn2c1NC1CCCCC1 [2-[3-(cyclohexylamino)-4-hydroimidazo[1,2-a]pyridin-2-yl]phenol] | 8.1939
29 | COC(=O)c1ccc2nc(-c3ccccc3O)c(NCc3cccc(Cl)c3)n2c1 [methyl 3-{[(3-chlorophenyl)methyl]amino}-2-(2-hydroxyphenyl)-4-hydroimidazo[1,2-a]pyridine-6-carboxylate] | 2.0174
30 | CN(C)CCNC(=O)c1ccc2nc(-c3ccccc3O)c(NCc3cccc(Cl)c3)n2c1 [N-[2-(dimethylamino)ethyl](3-{[(3-chlorophenyl)methyl]amino}-2-(2-hydroxyphenyl)(4-hydroimidazo[1,2-a]pyridin-6-yl))carboxamide] | 2.2231
31 | CCC(C)(C)Nc1c(-c2cc3cccc(C)c3nc2O)nc2ccccn12 [3-{3-[(1,1-dimethylpropyl)amino](4-hydroimidazo[1,2-a]pyridin-2-yl)}-8-methylquinolin-2-ol] | 2.3075
32 | COc1ccc(-c2nc3ccc(C)cn3c2NC2CCCCC2)cc1O [5-[3-(cyclohexylamino)-6-methyl(4-hydroimidazo[1,2-a]pyridin-2-yl)]-2-methoxyphenol] | 6.0251
33 | Cc1ccn2c(NC3CCCC3)c(-c3ccccc3O)nc2c1 [2-[3-(cyclopentylamino)-7-methyl-4-hydroimidazo[1,2-a]pyridin-2-yl]phenol] | 11.1785
34 | Oc1ccc(-c2nc3ccccn3c2NCc2ccccc2)cc1 [4-{3-[benzylamino]-4-hydroimidazo[1,2-a]pyridin-2-yl}phenol] | 27.3665
35 | Oc1ccc(-c2nc3ccccn3c2NC2CCCC2)cc1 [4-[3-(cyclopentylamino)-4-hydroimidazo[1,2-a]pyridin-2-yl]phenol] | 19.8598
36 | OCc1ccc2nc(-c3ccccc3O)c(NCc3ccc(F)cc3)n2c1 [2-(3-{[(4-fluorophenyl)methyl]amino}-6-(hydroxymethyl)-4-hydroimidazo[1,2-a]pyridin-2-yl)phenol] | 4.3564
37 | CN(C)CCNC(=O)c1ccc2nc(-c3ccccc3O)c(NCc3ccc(F)cc3)n2c1 [N-[2-(dimethylamino)ethyl](3-{[(4-fluorophenyl)methyl]amino}-2-(2-hydroxyphenyl)(4-hydroimidazo[1,2-a]pyridin-6-yl))carboxamide] | 4.4632
38 | CC(C)(O)c1ccc2nc(-c3ccccc3O)c(NCc3ccc(F)cc3)n2c1 [2-(3-{[(4-fluorophenyl)methyl]amino}-6-(1-hydroxy-isopropyl)-4-hydroimidazo[1,2-a]pyridin-2-yl)phenol] | 4.1299
39 | C[C@@H](Nc1c(-c2ccc(O)cc2)nc2ccccn12)c1ccccc1 [4-{3-[((1R)-1-phenylethyl)amino]-4-hydroimidazo[1,2-a]pyridin-2-yl}phenol] | 28.0451
40 | CCc1ccn2c(NCc3ccc(F)cc3)c(-c3ccccc3O)nc2c1 [2-(7-ethyl-3-{[(4-fluorophenyl)methyl]amino}-4-hydroimidazo[1,2-a]pyridin-2-yl)phenol] | 0.9459
41 | CCC(C)(C)Nc1c(-c2cc3cc(C)ccc3nc2O)nc2ccccn12 [3-{3-[(1,1-dimethylpropyl)amino](4-hydroimidazo[1,2-a]pyridin-2-yl)}-6-methylquinolin-2-ol] | 1.1087
42 | N#Cc1ccn2c(NCc3ccc(F)cc3)c(-c3ccc(O)cc3)nc2c1 [3-{[(4-fluorophenyl)methyl]amino}-2-(4-hydroxyphenyl)-4-hydroimidazo[1,2-a]pyridine-7-carbonitrile] | 19.6705
